Drawing on PubChem BioAssay AID1963875 (Molecular Pharmacology Branch, DTP, NCI, 2024), this text covers viability, T/C and IC50 for six compounds.

This test has as its system KRAS-mutant PDC complex spheroid viability. The test is described as follows: Anticancer human tumor 186277-243-T-J2-PDC patient-derived colon adenocarcinoma cell line growth inhibition [KRAS2]. Conditions: for viability, T/C: stronger effect = lower value. An excerpt:
Multicellular complex tumor spheroid response to RAS pathway inhibitors in combination with a targeted agents in patient-derived cell lines with oncogenic KRAS variants from multiple cancer types
A high-throughput screen of multi-cell type tumor spheroids was designed to identify active combinations of targeted small molecules and KRAS pathway inhibitors. Complex spheroids include a stromal component modeled by human endothelial cells (HUVEC) and fibroblasts modeled by human mesenchymal stem cells (MSCs). The concentration ranges selected for each drug and investigational agent were based upon clinically achievable concentrations if the clinical Cmax of the agent was known.
Compounds. The drugs and investigational agents: BI-3406 (NSC825286), BAY-293 (NSC824723), batoprotafib (TNO155; NSC825523), sotorasib (AMG 510; NSC818433), MRTX1257 (NSC819558), elimusertib (BAY 1895344; NSC800525), molibresib (GSK525762; NSC774829), temuterkib (LY3214996; NSC803410), venetoclax (NSC766270), alisertib (NSC759677), olaparib (NSC753686), talazoparib (NSC767125), erdafitinib (NSC781556), ipatasertib (NSC767898), cabozantinib (NSC761068), nintedanib (NSC756659), abemaciclib (NSC768073), docetaxel (NSC628503), trametinib (NSC758246), and sapanisertib (NSC764658) were obtained from the National Cancer Institute (NCI) Developmental Therapeutics Program Chemical Repository. The FDA-approved anticancer drug set is available from the Developmental Therapeutics Program. […] The stock solutions were prepared in dimethyl sulfoxide (DMSO, Sigma-Aldrich, St. Louis, MO, cat. D2650) at 800-fold the tested concentration and stored at -70 degrees C prior to their use. All drugs and investigational agents were tested over a range starting from a high concentration at or near the clinical Cmax and decreasing in half-log increments. If the clinical Cmax for an agent had not been determined, the highest concentration tested was 10 microM.
Cell Culture. All cells were maintained in an incubator at 37 degrees C and 5% CO2 with 95% humidity. The PDC lines were cultured according to standard operating procedures established by the NCI PDMR (https://pdmr.cancer.gov/sops/default.htm). Briefly, all PDCs were thawed and cultured in Matrigel-coated flasks prepared with a working solution of 1X Ham's F-12 nutrient mix, without supplementation (Invitrogen, Waltham, MA, cat. 11765054), 100 U/mL penicillin-streptomycin (Invitrogen, cat. 15140122), and 2.5% Matrigel (Corning Inc., Corning, NY, cat. 354248) for the first three passages. All PDCs were cultured in complete DMEM/F-12 media containing advanced DMEM/F-12 (Invitrogen, cat. 12634028), 4.9% defined fetal bovine serum, heat inactivated (HyClone Laboratories Inc., Logan, UT, cat. SH30070.03HI), 389 ng/mL hydrocortisone (Sigma-Aldrich, cat. H4001), 9.7 ng/mL human EGF recombinant protein (Invitrogen, cat. PHG0313), 23.4 microg/mL adenine (Sigma-Aldrich, cat. A2786), 97.3 U/mL penicillin-streptomycin (Invitrogen, cat. 15140122), 1.9 mM L-glutamine (Invitrogen, cat. 25030081), and 9.7 microM Y-27632 dihydrochloride (Tocris Bioscience, Bristol, United Kingdom, cat. 1254). The PDCs were cultured in complete DMEM/F12 media without 9.7 microM Y-27632 dihydrochloride for at least two passages prior to the screen. The established cell line HOP-62 was cultured in RPMI 1640 medium, HEPES (Invitrogen, cat. 22400105) with 10% defined fetal bovine serum (HyClone Laboratories Inc., cat. SH30070.03) and 2 mM L-glutamine (Invitrogen, cat. 25030081). The pooled donor HUVEC were cultured in endothelial cell growth medium 2 (PromoCell, Heidelberg, Germany, cat. C-22011) and the hMSC were cultured in mesenchymal stem cell growth medium 2 (PromoCell, cat. C-28009). For all experiments, HUVEC and hMSC were used at passages </=5, while the malignant cell lines were used at passages </=15. […]

Where [1] appears, read: compound alone, run of 07/12/2021.
[2] abbreviates: compound alone, run of 07/19/2021.
[3] abbreviates: compound alone, run of 07/26/2021.
Where [4] appears, read: curve of first compound, second compound 0.1 µM.
The mark [5] stands for this setting: curve of first compound, second compound 0.316 µM.
The mark [6] stands for this setting: curve of first compound, second compound 1 µM.
Setting [7] is: curve of first compound, second compound 3.16 µM.
Where [8] appears, read: curve of first compound, second compound 10 µM.
Where [9] appears, read: second compound 0.1 µM, first compound 0.01 µM.
The mark [10] stands for this setting: second compound 0.1 µM, first compound 0.0316 µM.
The mark [11] stands for this setting: second compound 0.1 µM, first compound 0.1 µM.
The mark [12] stands for this setting: second compound 0.316 µM, first compound 0.01 µM.
[13] abbreviates: second compound 0.316 µM, first compound 0.0316 µM.
Where [14] appears, read: second compound 0.316 µM, first compound 0.1 µM.
Setting [15] is: second compound 1 µM, first compound 0.01 µM.
Where [16] appears, read: second compound 1 µM, first compound 0.0316 µM.
The mark [17] stands for this setting: second compound 1 µM, first compound 0.1 µM.
The mark [18] stands for this setting: second compound 3.16 µM, first compound 0.01 µM.
[19] abbreviates: second compound 3.16 µM, first compound 0.0316 µM.
The mark [20] stands for this setting: second compound 3.16 µM, first compound 0.1 µM.
Setting [21] is: second compound 10 µM, first compound 0.01 µM.
[22] abbreviates: second compound 10 µM, first compound 0.0316 µM.
[23] abbreviates: second compound 10 µM, first compound 0.1 µM.

Structures are written as SMILES. Where “and” joins values, the source holds several entries; their conditions need not be identical. Identical values can stand only once.
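For viability, T/C in this document: viability read after seven days of compound exposure; 100% = DMSO vehicle-treated spheroids so lower means less viable.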

A word on the viability, T/C: it is the result in the treated group divided by that in the control group, in per cent. Usually IC50 stands for the concentration that gives 50% inhibition. In the case of `C=CC(=O)N1CCN(c2nc(=O)n(-c3c(C)ccnc3C(C)C)c3nc(-c4c(O)cccc4F)c(F)cc23)C(C)C1` (stereo not given), the viability, T/C is, setting by setting: (compound 0.1 µM) 98.1% [middle of 17 runs]; (compound 1 µM) 96.4% [middle of 17 runs]. For the same compound, the IC50 is, setting by setting: under setting [1], > 10 µM and 9.92 µM and 2.89 µM; under setting [2], > 10 µM and 8.52 µM; under setting [3], greater than 10 µM.

With `CNCc1ccccc1-c1csc(C(C)Nc2nc(C)nc3cc(OC)c(OC)cc23)c1` (stereo not given), the viability, T/C reads like this: (compound 0.1 µM) 100% [middle of 17 runs]; (compound 0.316 µM) 98.9% [middle of 17 runs]; (compound 10 µM) 0.16% [middle of 12 runs]. The IC50 under setting [1] is 5.56 µM [middle of 6 runs], the IC50 under setting [2] is 2.27 µM [middle of 5 runs] and the IC50 under setting [3] is 5.05 µM [middle of 6 runs].

Consider `COC(=O)c1ccc2c(C(=Nc3ccc(N(C)C(=O)CN4CCN(C)CC4)cc3)c3ccccc3)c(O)[nH]c2c1`, for which the viability, T/C was 93.8% [middle of 5 runs] (compound 0.0316 µM); 104% [middle of 5 runs] (compound 0.1 µM); 99.4% [middle of 5 runs] (compound 0.316 µM); 107% [middle of 5 runs] (compound 1 µM); 16% [middle of 5 runs] (compound 10 µM). The IC50 (curve of compound) was 3.62 µM [middle of 4 runs].

In the case of `COc1cc2nc(C)nc(NC(C)c3cc(N)cc(C(F)(F)F)c3)c2cc1OC1CCOC1` (stereo not given), the viability, T/C (compound 1 µM) is 101% [middle of 17 runs]. Further, the IC50 by setting is: under setting [1], greater than 10 µM; under setting [2], greater than 10 µM.

Turning to `CC(=O)OC12COC1CC(O)C1(C)C(=O)C(O)C3=C(C)C(OC(=O)C(O)C(NC(=O)OC(C)(C)C)c4ccccc4)CC(O)(C(OC(=O)c4ccccc4)C21)C3(C)C` (stereo not given) + C=CC(=O)N1CCN(c2nc(=O)n(-c3c(C)ccnc3C(C)C)c3nc(-c4c(O)cccc4F)c(F)cc23)C(C)C1, the IC50 is, setting by setting: under setting [4], less than 0.01 µM; under setting [5], less than 0.01 µM; under setting [6], less than 0.01 µM; under setting [7], less than 0.01 µM; under setting [8], less than 0.01 µM. For the same compound, the viability, T/C is 6.27% under setting [9]; 4.61% under setting [10]; 3.18% under setting [11]; 3.25% (second compound 0.1 µM, first compound 0.316 µM); 3.42% (second compound 0.1 µM, first compound 1 µM); 3.34% (second compound 0.1 µM, first compound 3.16 µM). In addition, the viability, T/C was 6.24% under setting [12]; 4% under setting [13]; 3.67% under setting [14]; 3.33% (second compound 0.316 µM, first compound 0.316 µM); 3.62% (second compound 0.316 µM, first compound 1 µM); 4% (second compound 0.316 µM, first compound 3.16 µM). In addition, the viability, T/C is 6.82% under setting [15]; 4.03% under setting [16]; 3.81% under setting [17]; 3.93% (second compound 1 µM, first compound 0.316 µM); 4% (second compound 1 µM, first compound 1 µM); 4.32% (second compound 1 µM, first compound 3.16 µM). Besides, the viability, T/C reads like this: under setting [18], 6.24%; under setting [19], 4.69%; under setting [20], 3.98%; (second compound 3.16 µM, first compound 0.316 µM) 4.34%; (second compound 3.16 µM, first compound 1 µM) 4.7%; (second compound 3.16 µM, first compound 3.16 µM) 4.34%. The viability, T/C runs as follows: under setting [21], 6.5%; under setting [22], 5.4%; under setting [23], 5.36%; (second compound 10 µM, first compound 0.316 µM) 5.19%; (second compound 10 µM, first compound 1 µM) 5.08%; (second compound 10 µM, first compound 3.16 µM) 4.88%.

On to `CN(C)C/C=C/C(=O)Nc1cc2c(Nc3ccc(F)c(Cl)c3)ncnc2cc1O[C@H]1CCOC1` + C=CC(=O)N1CCN(c2nc(=O)n(-c3c(C)ccnc3C(C)C)c3nc(-c4c(O)cccc4F)c(F)cc23)C(C)C1, for which the half-maximal inhibitory concentration (IC50) reads like this: under setting [4], greater than 0.1 µM; under setting [5], greater than 0.1 µM; under setting [6], greater than 0.1 µM; under setting [7], greater than 0.1 µM; under setting [8], 0.0498 µM. Further, the viability, T/C (second compound 0.1 µM, first compound 0.000316 µM) is 105%; the viability, T/C (second compound 0.1 µM, first compound 0.001 µM) is 93.7%; the viability, T/C (second compound 0.1 µM, first compound 0.00316 µM) is 106%; the viability, T/C under setting [9] was 102%; the viability, T/C under setting [10] was 122%; the viability, T/C under setting [11] was 109%. The viability, T/C reads like this: (second compound 0.316 µM, first compound 0.000316 µM) 95.8%; (second compound 0.316 µM, first compound 0.001 µM) 97.7%; (second compound 0.316 µM, first compound 0.00316 µM) 99.5%; under setting [12], 98.4%; under setting [13], 107%; under setting [14], 112%. The viability, T/C is 91.2% (second compound 1 µM, first compound 0.000316 µM); 106% (second compound 1 µM, first compound 0.001 µM); 91.5% (second compound 1 µM, first compound 0.00316 µM); 101% under setting [15]; 113% under setting [16]; 105% under setting [17]. Moreover, the viability, T/C by setting is: (second compound 3.16 µM, first compound 0.000316 µM) 93.1%; (second compound 3.16 µM, first compound 0.001 µM) 103%; (second compound 3.16 µM, first compound 0.00316 µM) 100%; under setting [18], 98.1%; under setting [19], 97.7%; under setting [20], 74.4%. The viability, T/C is, setting by setting: (second compound 10 µM, first compound 0.000316 µM) 79.9%; (second compound 10 µM, first compound 0.001 µM) 68.8%; (second compound 10 µM, first compound 0.00316 µM) 77.3%; under setting [21], 66.3%; under setting [22], 55.2%; under setting [23], 40.6%.
